Test results as given in patent publication US20230414612A1, “PHARMACEUTICAL COMPOSITION COMPRISING A CAP-DEPENDENT ENDONUCLEASE INHIBITOR” (TaiGen Biotechnology Co., Ltd., priority 2022, published 2023).
Converted amounts (≈) assume the structure as drawn.

How the values were obtained:
[1] = Dissolution assessment: solubility in FaSSIF; type: physicochemical
Experimental: An amount of Compound A (about 6 mg) and amorphous solid dispersion (equivalent to around 6 mg Compound A) were weighed into an 8 ml bottle, and 6 ml FaSSIF (Fasted state simulated intestinal fluid) was added (target concentration 1.0 mg/ml). Then the suspensions were stirred at thermomixer at 37° C. under 600 rpm 200 μL of suspensions were withdrawn at setting time (such as 5 min) and then centrifuged at 14000 rpm for 4 min. After that, 100 μL of supernatant was diluted with CAN five times to prevent precipitation, and was analyzed by HPLC.
FaSSIF was prepared by following steps: 1) Place 0.1024 g sodium hydroxide, 0.7518 g sodium dihydrogen phosphate anhydrous and 1.5470 g sodium chloride in a 250 mL volumetric flask, add about 225 mL water, and adjust the pH to 6.5 with 1N sodium hydroxide or 1N hydrochloric acid. Make up to volume (250 mL) with pure water. 2) Place and dissolve 0.4480 g SIF Powder Original with 100 mL of buffer (from step 1) in a 200 mL volumetric flask, add water to volume and mix well.

[2] = Stability study of Compound A and amorphous solid dispersions (total impurity level, TRS %); type: physicochemical
Experimental: The amorphous solid dispersions were stored at 4° C. (closed) or 40° C./75% RH (closed and open state). After 10 days or 4 weeks, samples were observed by camera, characterized by XRPD and analyzed by HPLC for purity as well as kinetic solubility. All the samples for closed storage conditions were put into clear glass vials with gaskets and screwed caps. All the samples for open storage conditions were put into clear glass vials with cap, while the month of vials was covered by aluminium foil with pinholes to avoid cross-contamination.
The sample number in TABLE 2 corresponds to the sample number in TABLE 1.

[3] = tested on: influenza virus (A/PR/8/34); test: In vivo influenza virus infection mouse model (survival rate, body weight change); conditions: 5 mg/kg, oral, BALB/c mouse infected with A/PR/8/34
Experimental: (§1) The term “therapeutically effective amount” refers to the amount or dose of an active compound or salt thereof that is sufficient to prevent development of, or alleviate to some extent, one or more of the symptoms of the disorder, disease, or condition being treated. […] In addition, the effect of Compound A on influenza virus growth in lungs of BALB/c mice infected with low infectious dose 100 pfu/mouse of A/PR/8/34 at one-day post-infection was conducted. […] Therefore, based on the results of these preliminary in vivo animal studies, it is estimated that the reasonable therapeutically effective amount of the compound of Formula (I) or a pharmaceutically acceptable salt thereof for human can be about 5-200 mg, about 5-150 mg, about 5-100 mg, about 10-80 mg, about 10-40 mg, about 10-30 mg, about 10-20 mg, about 5-10 mg, about 5-20 mg, about 20-40 mg, or about 40-80 mg. For example but not limited thereto, the therapeutically effective amount of the compound of Formula (I) or a pharmaceutically acceptable salt thereof is 5 mg, 10 mg, 15 mg, 20 mg, 25 mg, 30 mg, 35 mg, 40 mg, 45 mg, 50 mg, 55 mg, 60 mg, 65 mg, 70 mg, 75 mg, 80 mg, 85 mg, 90 mg, 95 mg, 100 mg, 105 mg, 110 mg, 115 mg, 120 mg, 125 mg, 130 mg, 135 mg, 140 mg, 145 mg, 150 mg, 155 mg, 160 mg, 165 mg, 170 mg, 175 mg, 180 mg, 185 mg, 190 mg, 195 mg, or 200 mg.

[4] = tested on: influenza virus A/PR/8/34; test: Influenza virus growth in lungs of infected BALB/c mice; type: in vivo; conditions: 5 and 25 mg/kg; 100 pfu/mouse A/PR/8/34; one-day post-infection
Experimental: as §1

[5] = 14-day repeated-dose oral toxicity study; type: in vivo; conditions: 300 mg/kg/day
Experimental: as §1

## COC(=O)OCOc1c2n(ccc1=O)N([C@H]1c3ccccc3CSc3c1ccc(F)c3F)CC1(CC1)C2=O [Compound A, [1-((11S)-7,8-difluoro(6H,11H-dibenzo[c,f]thiepin-11-yl))-4,6-dioxospiro[1,2,3,9-tetrahydropyridino[1,2-e]pyridazine-3,1′-cyclopropane]-5-yloxy]methyl methoxyformate]
[1]; FaSSIF, 37° C., 600 rpm, target concentration 1.0 mg/ml, 5 min
  Solubility, 5 min: 4.95 µg/mL (≈ 9.16 µM)
[1]; FaSSIF, 37° C., 600 rpm, target concentration 1.0 mg/ml, 15 min
  Solubility, 15 min: 4.89 µg/mL (≈ 9.05 µM)
[1]; statement in words
  aqueous solubility: low aqueous solubility
[2]; 4° C., closed, 4 weeks
  4° C. Closed for 4 wks TRS %: 0.76%
[2]; 40° C./75% RH, closed, 4 weeks
  40° C./75% RH Closed for 4 wks TRS %: 0.86%
[2]; 40° C./75% RH, open, 4 weeks (cells without #)
  40° C./75% RH Open for 4 wks TRS %: 0.82%
[2]; initial, total relative substances by HPLC
  Initial TRS %: 0.79%
[3]
  antiviral efficacy on body weight change: good antiviral efficacy
  antiviral efficacy on survival rate: good antiviral efficacy
[4]
  Virus titers in lungs vs vehicle treated group: significantly lower
[5]
  deaths or toxic effect: did not cause deaths or have toxic effect
